Several values for one entry are separate records, joined by “and”; a condition that tells them apart may be missing. Identical values can stand only once. Results filed as inconclusive are left out.
System: C3AKF1 mice, osteogenic sarcoma HE10734 s.c., tumor weight T/C
Experiment: NCI In Vivo Anticancer Drug Screen. Data for tumor model Osteogenic Sarcoma HE 10734 (subcutaneous) in C3AKF1 (CHKRF1) mice
Conditions: endpoint: mean tumor weight, schedule: Q01DX010 (ip), higher = larger tumour
Method: The antitumor activity of compounds was measured in mice bearing transplantable tumors. Survival or tumor size were measured and the results are expressed as the measurement made in the treated group (T) divided by the measurement made in the vehicle treated control group (C). The tumor model used in this assay is Osteogenic Sarcoma HE 10734 (subcutaneous) in C3AKF1 (CHKRF1) mice

[1] = dose: 125.0 mg/kg/injection, vehicle: saline
[2] = dose: 250.0 mg/kg/injection, vehicle: saline
[3] = dose: 500.0 mg/kg/injection, vehicle: saline
[4] = dose: 1000.0 mg/kg/injection, vehicle: saline
[5] = dose: 120.0 mg/kg/injection, vehicle: saline
[6] = dose: 25.0 mg/kg/injection, vehicle: saline
[7] = dose: 50.0 mg/kg/injection, vehicle: saline
[8] = dose: 100.0 mg/kg/injection, vehicle: saline

CS(=O)(=O)OCC(O)C(O)COS(C)(=O)=O (centres undefined)
T/C [1]: 121 % of control | T/C [2]: 111 % of control | T/C [3]: 81 % of control | T/C [4]: 101 % of control

Nc1nc(SCc2ccccc2)c2ncn(C3CCCC3)c2n1
T/C [1]: 80 % of control | T/C [2]: 115 % of control | T/C [3]: 83 % of control | T/C [4]: 63 % of control

COc1cc([C@@H]2c3cc4c(cc3[C@H](O)[C@H]3COC(=O)[C@@H]23)OCO4)cc(OC)c1OC
T/C (dose: 7.0 mg/kg/injection, vehicle: saline): 75 % of control

Nc1ncnc2c1ncn2C1CCCO1 (centres undefined)
T/C (dose: 75.0 mg/kg/injection, vehicle: saline): 86 % of control | T/C (dose: 150.0 mg/kg/injection, vehicle: saline): 54 % of control

c1cc2n(n1)CCN2
T/C (dose: 30.0 mg/kg/injection, vehicle: saline): 100 % of control | T/C (dose: 60.0 mg/kg/injection, vehicle: saline): 68 % of control | T/C [5]: 40 % of control

O=C1N(Cl)C(=O)C(c2ccc(Cl)cc2)(c2ccc(Cl)cc2)N1Cl
T/C (dose: 10.0 mg/kg/injection, vehicle: saline): 70 % of control | T/C (dose: 20.0 mg/kg/injection, vehicle: saline): 58 % of control | T/C (dose: 40.0 mg/kg/injection, vehicle: saline): 90 % of control | T/C (dose: 80.0 mg/kg/injection, vehicle: saline): 67 % of control and 77 % of control | T/C [5]: 48 % of control | T/C (dose: 180.0 mg/kg/injection, vehicle: saline): 55 % of control | T/C (dose: 270.0 mg/kg/injection, vehicle: saline): 53 % of control

C/C=C1\CN(C)[C@H]2Cc3c([nH]c4ccccc34)[C@@H](c3cc4[nH]c5c(c4cc3OC)CCN3C[C@H]4C[C@H](CC)[C@H]3[C@@]5(C(=O)OC)C4)C[C@H]1C2C(=O)OC (some centres undefined)
T/C (dose: 20.0 mg/kg/injection, vehicle: water): 49 % of control

S=c1nc[nH]c2c1ncn2C1CCCO1 (centres undefined)
T/C (dose: 12.0 mg/kg/injection, vehicle: saline): 84 % of control | T/C [6]: 85 % of control | T/C [7]: 62 % of control | T/C [8]: 30 % of control and 33 % of control

O=C(O)c1ccc(-c2ccccc2)cc1
T/C (dose: 200.0 mg/kg/injection, vehicle: carboxymethylcellulose (CMC)): 70 % of control

ClCCn1cnc2c(SCc3ccccc3)ncnc21
T/C [6]: 75 % of control | T/C [7]: 64 % of control | T/C [8]: 56 % of control | T/C (dose: 300.0 mg/kg/injection, vehicle: saline): 69 % of control | T/C (dose: 450.0 mg/kg/injection, vehicle: saline): 65 % of control

Nc1nc(SCc2ccccc2Cl)c2[nH]cnc2n1
T/C (dose: 6.0 mg/kg/injection, vehicle: carboxymethylcellulose (CMC)): 70 % of control | T/C (dose: 12.0 mg/kg/injection, vehicle: carboxymethylcellulose (CMC)): 52 % of control | T/C (dose: 25.0 mg/kg/injection, vehicle: carboxymethylcellulose (CMC)): 54 % of control | T/C (dose: 50.0 mg/kg/injection, vehicle: carboxymethylcellulose (CMC)): 43 % of control | T/C [7]: 32 % of control and 39 % of control | T/C (dose: 70.0 mg/kg/injection, vehicle: saline): 41 % of control | T/C (dose: 110.0 mg/kg/injection, vehicle: saline): 16 % of control and 33 % of control | T/C (dose: 165.0 mg/kg/injection, vehicle: saline): 13 % of control

CC(=O)Nc1ccc(NC(=O)c2ccc([As](O)O)cc2)cc1
T/C (dose: 15.0 mg/kg/injection, vehicle: carboxymethylcellulose (CMC)): 89 % of control | T/C (dose: 30.0 mg/kg/injection, vehicle: carboxymethylcellulose (CMC)): 111 % of control | T/C (dose: 60.0 mg/kg/injection, vehicle: carboxymethylcellulose (CMC)): 85 % of control | T/C (dose: 120.0 mg/kg/injection, vehicle: carboxymethylcellulose (CMC)): 61 % of control and 62 % of control | T/C (dose: 240.0 mg/kg/injection, vehicle: carboxymethylcellulose (CMC)): 32 % of control

CCCC(=O)NC1=C(N2CC2)C(=O)C(NC(=O)CCC)=C(N2CC2)C1=O
T/C (dose: 0.5 mg/kg/injection, vehicle: saline): 104 % of control | T/C (dose: 0.75 mg/kg/injection, vehicle: saline): 72 % of control | T/C (dose: 1.1 mg/kg/injection, vehicle: saline): 83 % of control | T/C (dose: 1.7 mg/kg/injection, vehicle: saline): 47 % of control and 60 % of control
